Consider three molecules from patent US10369122B2, “Benzene-1,3,5-tricarboxamide derivatives and uses thereof” (OHIO STATE INNOVATION FOUNDATION, priority 2015, dated 2019).

The subject of this assay is Hep3B cells. Briefly: TT LLNs-mediated luciferase transfection assay. The settings on record: for K1 (average luminescence intensity, Kn = ΣRLIn/4): level 1 of the component; for K2 (average luminescence intensity, Kn = ΣRLIn/4): level 2 of the component; for K3 (average luminescence intensity, Kn = ΣRLIn/4): level 3 of the component; for K4 (average luminescence intensity, Kn = ΣRLIn/4): level 4 of the component. Type of assay: cell-based, human. How it is done:
R. et. al. J. Am. Chem. Soc. 2011, 133, 8995-9004). After formulation, the freshly formed […] were used immediately for cell transfection. For in vivo studies, the freshly prepared LLNs were then dialyzed against PBS buffer using Slide-A-Lyzer dialysis cassettes (3.5 K MWCO, Life Technologies, Grand island, N.Y.). […] Entrapment efficiency of LLNs was determined using the Ribogreen assay reported previously (Love Kevin, T. et. al. Proc. Natl. Acad. Sci. […] Chen, D. et. al. J. Am. Chem. Soc. 2012, 134, 6948-6951). TT LLNs-Mediated Luciferase Transfection Assay. The human hepatocellular carcinoma cell line Hep3B was purchased from American Type Culture Collection (Manassas, Va.) and maintained at 37° C. with 5% CO2 in Eagle's Minimum Essential Medium (MEM) supplemented with 10% heat inactivated FBS. […] Transfections were performed in triplicate. After 6 h of transfection, culture medium containing TT LLNs was carefully removed, and 50 μL of serum-free EMEM and 50 μL of Bright-Glo luciferase substrate were mixed and added to each well. […] Free Flue mRNA served as a negative control. Orthogonal Array Experimental Design. In order to identify a preferred molar ratio of the formulation components, an orthogonal array experiment design was utilized. Four formulation components were assigned in the following orthogonal experiments with a fixed TT/mRNA ratio (10/1). TT3S-DOPE LLNs 1-1 to 1-16 were prepared according to the orthogonal array design table L16(4)^4 and used to transfect Hep3B cells (Table 2). […] On the basis of the result of the first round of nanoparticle formulation, the levels of each factor were further refined, and the second round orthogonal experiment with 16 formulations TT3-DOPE LLNs 2-1 to 2-16 was conducted (Table 4). A similar analysis was performed as described above.

Turning to `CC(C)CCC[C@@H](C)[C@H]1CC[C@H]2[C@@H]3CC=C4C[C@@H](O)CC[C@]4(C)[C@H]3CC[C@]12C` [Cholesterol, cholesterol], where the note is “first round of TT3-DOPE LLNs”, the “ΔK = Kmax − Kmin (impact of the component on mRNA delivery)” value (shortened to “ΔK = Kmax − Kmin”) is listed as 1121; the “K1 (average luminescence intensity, Kn = ΣRLIn/4)” value was determined as 108; the “K2 (average luminescence intensity, Kn = ΣRLIn/4)” value is 1229; the “K3 (average luminescence intensity, Kn = ΣRLIn/4)” value stood at 428. Moreover, the “K4 (average luminescence intensity, Kn = ΣRLIn/4)” value (first round of TT3-DOPE LLNs) stood at 535. Also, for the setting “second round of TT3-DOPE LLNs”, the “ΔK = Kmax − Kmin” value turned out to be 18025; the “K1 (average luminescence intensity, Kn = ΣRLIn/4)” value is recorded as 29028; the “K2 (average luminescence intensity, Kn = ΣRLIn/4)” value was 35974; the “K3 (average luminescence intensity, Kn = ΣRLIn/4)” value is 47647. Further, for the setting “second round of TT3-DOPE LLNs”, the “K4 (average luminescence intensity, Kn = ΣRLIn/4)” value came to 57052.
For the molecule “1,2-dimyristoyl-sn-glycerol, methoxypolyethylene glycol-2000 [DMG-PEG2000]”, for the setting “first round of TT3-DOPE LLNs”, the “ΔK = Kmax − Kmin” value is given as 1121; the “K1 (average luminescence intensity, Kn = ΣRLIn/4)” value came out at 1295; the “K2 (average luminescence intensity, Kn = ΣRLIn/4)” value was 407; the “K3 (average luminescence intensity, Kn = ΣRLIn/4)” value was determined as 424. Also, where the note is “first round of TT3-DOPE LLNs”, the “K4 (average luminescence intensity, Kn = ΣRLIn/4)” value was 174. Besides, for the setting “second round of TT3-DOPE LLNs”, the “ΔK = Kmax − Kmin” value is 43788; the “K1 (average luminescence intensity, Kn = ΣRLIn/4)” value amounted to 56896; the “K2 (average luminescence intensity, Kn = ΣRLIn/4)” value stood at 56833; the “K3 (average luminescence intensity, Kn = ΣRLIn/4)” value was 42863. Moreover, the “K4 (average luminescence intensity, Kn = ΣRLIn/4)” value (second round of TT3-DOPE LLNs) was 13109.
As to `CCCCCCCC/C=C\CCCCCCCC(=O)OC[C@H](COP(=O)(O)OCCN)OC(=O)CCCCCCC/C=C\CCCCCCCC` [DOPE, 1,2-dioleoyl-sn-glycero-3-phosphoethanolamine], where the note is “first round of TT3-DOPE LLNs”, the “ΔK = Kmax − Kmin” value was 1231; the “K1 (average luminescence intensity, Kn = ΣRLIn/4)” value was determined as 325; the “K2 (average luminescence intensity, Kn = ΣRLIn/4)” value is given as 369; the “K3 (average luminescence intensity, Kn = ΣRLIn/4)” value was found to be 188. Also, the “K4 (average luminescence intensity, Kn = ΣRLIn/4)” value (first round of TT3-DOPE LLNs) is given as 1419. For the same molecule, where the note is “second round of TT3-DOPE LLNs”, the “ΔK = Kmax − Kmin” value is 19529; the “K1 (average luminescence intensity, Kn = ΣRLIn/4)” value is listed as 33465; the “K2 (average luminescence intensity, Kn = ΣRLIn/4)” value is on record as 38426; the “K3 (average luminescence intensity, Kn = ΣRLIn/4)” value is 52995. Moreover, the “K4 (average luminescence intensity, Kn = ΣRLIn/4)” value (second round of TT3-DOPE LLNs) is given as 44816.
